Data taken from patent US20220026427A1, “CELL BASED ASSAYS AND KITS FOR ASSESSING SERUM CHOLINERGIC RECEPTOR ACTIVITY” (Centre for Addiction and Mental Health, priority 2017, published 2022).
Where a name gives a salt, the structure may show the parent alone.

How the values were obtained:
[1] = tested on: cognitively intact healthy participants; details: in vivo, iv
Text: Cambridge Neuropsychological Test Automated Battery (CANTAB-AD):
Two main challenges are often encountered with many of the newer neurocognitive tasks. First is the lack of standardization in administering such tasks. Second is the lack of information on their psychometric properties. The Cambridge Neuropsychological Test Automated Battery (CANTAB) system addresses both of these challenges (www.cambridgecognition.com). The design of the CANTAB is based on well-established neurocognitive experimental paradigms. It was designed initially to provide componential analysis of cognitive functions in the elderly and individuals with dementia. The CANTAB Eclipse consists of 22 tasks that assess neurocognitive processes within a wide range of relatively independent cognitive domains, including visual memory, attention, working memory and problem solving. Each of the tasks is graded, allowing the assessment of patients with varying level of impairment. Increasing the difficulty of a task avoids a ceiling effect. Conversely, decreasing the difficulty of a task avoids a floor effect and allows the distinction between specific and generalized deficits (a concern discussed above). The tasks are automated and therefore testing is given in a standardized manner with a standardized feedback about accuracy and speed. […] Estimates of test-retest reliability and of practice effects are available for many of the CANTAB tasks based on an elderly sample with an age range of 60-80 years. The CANTAB has been used in a variety of clinical populations providing an opportunity to compare findings related to different disorders, including findings examining cognition in late-life bipolar disorder. Finally, the CANTAB tasks are independent of language and culture and can be used in population for whom English is not a primary language^46.
Participants attended the Centre for Addiction and Mental Health on two separate occasions:
Visit 2: Upon arrival at CAMH, participants were administered the CANTAB. An IV line was then set up by a research nurse and the first blood sample was taken. […] The CANTAB was completed once more. […] The qualified investigator or designate was available for the entirety of the study visit.

[2] = biological target: T1, human or rat M1 muscarinic receptors (Rattus norvegicus, UniProt P08482); assay: Ca2+ mobilization (FluoForte) protocol in CHO cells expressing M1 receptors, pre- and post-carbachol phases; type: cell-based
T1 construct: host or cells: CHO cells (M1WT3), whole cells
T1 sequence (P08482 1-460): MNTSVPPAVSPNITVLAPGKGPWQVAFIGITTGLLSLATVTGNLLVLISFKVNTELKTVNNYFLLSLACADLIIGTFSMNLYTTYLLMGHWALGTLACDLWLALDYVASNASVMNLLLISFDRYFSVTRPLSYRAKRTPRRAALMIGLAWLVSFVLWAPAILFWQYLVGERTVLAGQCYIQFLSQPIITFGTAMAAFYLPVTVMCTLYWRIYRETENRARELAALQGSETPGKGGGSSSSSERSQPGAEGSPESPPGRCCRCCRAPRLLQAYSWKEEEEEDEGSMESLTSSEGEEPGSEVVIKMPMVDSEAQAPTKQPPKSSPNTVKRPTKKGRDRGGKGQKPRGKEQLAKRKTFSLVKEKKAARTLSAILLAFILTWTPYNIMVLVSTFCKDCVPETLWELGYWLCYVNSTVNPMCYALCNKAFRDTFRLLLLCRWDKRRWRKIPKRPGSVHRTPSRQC

CN1[C@@H]2C[C@@H](OC(=O)[C@H](CO)c3ccccc3)C[C@H]1[C@@H]1O[C@@H]12 [scopolamine, Scopolamine Hydrobromide]
blc_pc difference score (Big/little circle, Percent correct) [1]: −0.8 | dms_pc difference score (Delayed matching to sample, Percent correct (all delays)) [1]: −19.3 | dms_pcs difference score (Delayed matching to sample, Percent correct (simultaneous)) [1]: 4.4 | dms_pege difference score (Delayed matching to sample, Prob error given error) [1]: 0.1 | pal_tea6 difference score (Paired associated learning, Total errors (6 shapes, adjusted)) [1]: 9.0 | pal_tea difference score (Paired associated learning, Total errors (adjusted)) [1]: 19.1 | rvp_a difference score (Rapid image visual processing, A′) [1]: −0.1 | soc_mitt5 difference score (Stocking of Cambridge, Mean initial thinking time (5 moves)) [1]: −3055.0 | soc_mstt5 difference score (Stocking of Cambridge, Mean subsequent thinking time (5 moves)) [1]: 5139.3 | soc_psimm difference score (Stocking of Cambridge, Problems solved in minimum moves) [1]: −1.7 | swm_be difference score (Spatial working memory, Between errors) [1]: 20.2 | swm_strat difference score (Spatial working memory, Strategy) [1]: 3.1

Clc1ccc2c(c1)N=C(N1CCNCC1)c1ccccc1N2 [NDMC, N-desmethylclozapine]
effect on Ca2+ mobilization in the pre-carbachol phase [2]: stronger effects than CLZ | effect on the carbachol response (post-carbachol phase) [2]: virtually eliminated the carbachol response

CN1[C@@H]2CC[C@H]1C[C@@H](OC(=O)C(CO)c1ccccc1)C2 (stereo partly shown) [Atropine, atropine]
effect of the antagonist alone on Ca2+ mobilization [2]: no effect on their own | effect on the agonist response (serum peak) [2]: completely blocked this agonist response
